Test results published in PMC6478789, “A chemical toolbox for the study of bromodomains and epigenetic signaling” (Nature Communications, 2019).
Where two headings read alike, the source gives them in different places.

Columns and labels:
FXR1 = FXR1 (Homo sapiens, UniProt P51114); assay: Temperature shift assay (non-BRD reader domains); format: binding; settings: 10µM compound
Method: Temperature shift assays have been described by Fedorov et al.[46]. Recombinant protein domains (bromodomain or kinases) at a concentration of 2 μM in 10 mM HEPES, pH 7.5, and 500 mM NaCl were mixed with 10 μM of chemical probes. Temperature-dependent protein unfolding profiles were measured using a Real-Time PCR Mx3005p machine (Stratagene).
Wu et al., Supplementary figures and tables 14
Supplementary Table 3: Selectivity screening data (non-BRD reader domains):
Temperature shift assay data of BRD probes screened against a diver se panel of methyl-lysine
reader domains. Compounds were screened a concentration of 10 µM. Shown are temperature

BRPF1 = BRPF1 (Homo sapiens, UniProt P55201); assay: Temperature shift assay (non-BRD reader domains); format: binding; settings: 10µM compound
PRMT7 = target: T1, PRMT7 (Homo sapiens, UniProt Q9NVM4); assay: Methyl transferase scintillation proximity assay; format: biochemical; settings: average of two measurements; for inhibition at 10 µM: read-out: MTases Inhibition (%)
T1 construct: purchased DiscoverX BROMOscan (bromodomains); SGC in-house methyltransferase panel
T1 sequence (Q9NVM4 1-692): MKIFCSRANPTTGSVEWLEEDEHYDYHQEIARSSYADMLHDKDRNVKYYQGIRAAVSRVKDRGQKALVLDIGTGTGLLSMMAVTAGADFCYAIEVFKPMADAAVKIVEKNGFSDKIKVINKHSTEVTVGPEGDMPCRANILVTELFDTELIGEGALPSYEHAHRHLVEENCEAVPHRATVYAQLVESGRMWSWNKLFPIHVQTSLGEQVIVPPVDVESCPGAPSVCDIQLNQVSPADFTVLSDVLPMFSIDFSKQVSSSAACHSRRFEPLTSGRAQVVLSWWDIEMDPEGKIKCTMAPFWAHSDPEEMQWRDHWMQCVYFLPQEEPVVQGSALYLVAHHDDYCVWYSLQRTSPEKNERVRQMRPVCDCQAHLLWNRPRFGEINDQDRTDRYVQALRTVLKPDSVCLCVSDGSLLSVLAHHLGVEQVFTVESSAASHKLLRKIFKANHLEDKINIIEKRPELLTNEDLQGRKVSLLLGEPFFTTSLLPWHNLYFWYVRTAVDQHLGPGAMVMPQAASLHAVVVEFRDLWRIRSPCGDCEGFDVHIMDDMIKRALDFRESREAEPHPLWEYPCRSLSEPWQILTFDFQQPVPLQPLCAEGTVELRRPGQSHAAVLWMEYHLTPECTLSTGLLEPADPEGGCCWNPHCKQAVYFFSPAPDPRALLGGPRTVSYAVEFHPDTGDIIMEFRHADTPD
Outline: (§1)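 ^3H-SAM + biotinylated substrate, both ~apparent Km per enzyme. Quench: 7.5 M guanidine HCl; dilute in 20 mM Tris pH 8.0; FlashPlate capture 1 h; read CPM. No-compound = 100%, no-enzyme = 0% activity.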

NSD1 = target: T2, NSD1 (Homo sapiens, UniProt Q96L73); assay: Methyl transferase scintillation proximity assay; format: biochemical; settings: average of two measurements; for inhibition at 10 µM: read-out: MTases Inhibition (%)
T2 construct: purchased DiscoverX BROMOscan (bromodomains); SGC in-house methyltransferase panel
Outline: as §1

NSD3 = target: T3, NSD3 (Homo sapiens, UniProt Q9BZ95); assay: Methyl transferase scintillation proximity assay; format: biochemical; settings: average of two measurements; for inhibition at 10 µM: read-out: MTases Inhibition (%)
T3 construct: purchased DiscoverX BROMOscan (bromodomains); SGC in-house methyltransferase panel
T3 sequence (Q9BZ95 1-1437): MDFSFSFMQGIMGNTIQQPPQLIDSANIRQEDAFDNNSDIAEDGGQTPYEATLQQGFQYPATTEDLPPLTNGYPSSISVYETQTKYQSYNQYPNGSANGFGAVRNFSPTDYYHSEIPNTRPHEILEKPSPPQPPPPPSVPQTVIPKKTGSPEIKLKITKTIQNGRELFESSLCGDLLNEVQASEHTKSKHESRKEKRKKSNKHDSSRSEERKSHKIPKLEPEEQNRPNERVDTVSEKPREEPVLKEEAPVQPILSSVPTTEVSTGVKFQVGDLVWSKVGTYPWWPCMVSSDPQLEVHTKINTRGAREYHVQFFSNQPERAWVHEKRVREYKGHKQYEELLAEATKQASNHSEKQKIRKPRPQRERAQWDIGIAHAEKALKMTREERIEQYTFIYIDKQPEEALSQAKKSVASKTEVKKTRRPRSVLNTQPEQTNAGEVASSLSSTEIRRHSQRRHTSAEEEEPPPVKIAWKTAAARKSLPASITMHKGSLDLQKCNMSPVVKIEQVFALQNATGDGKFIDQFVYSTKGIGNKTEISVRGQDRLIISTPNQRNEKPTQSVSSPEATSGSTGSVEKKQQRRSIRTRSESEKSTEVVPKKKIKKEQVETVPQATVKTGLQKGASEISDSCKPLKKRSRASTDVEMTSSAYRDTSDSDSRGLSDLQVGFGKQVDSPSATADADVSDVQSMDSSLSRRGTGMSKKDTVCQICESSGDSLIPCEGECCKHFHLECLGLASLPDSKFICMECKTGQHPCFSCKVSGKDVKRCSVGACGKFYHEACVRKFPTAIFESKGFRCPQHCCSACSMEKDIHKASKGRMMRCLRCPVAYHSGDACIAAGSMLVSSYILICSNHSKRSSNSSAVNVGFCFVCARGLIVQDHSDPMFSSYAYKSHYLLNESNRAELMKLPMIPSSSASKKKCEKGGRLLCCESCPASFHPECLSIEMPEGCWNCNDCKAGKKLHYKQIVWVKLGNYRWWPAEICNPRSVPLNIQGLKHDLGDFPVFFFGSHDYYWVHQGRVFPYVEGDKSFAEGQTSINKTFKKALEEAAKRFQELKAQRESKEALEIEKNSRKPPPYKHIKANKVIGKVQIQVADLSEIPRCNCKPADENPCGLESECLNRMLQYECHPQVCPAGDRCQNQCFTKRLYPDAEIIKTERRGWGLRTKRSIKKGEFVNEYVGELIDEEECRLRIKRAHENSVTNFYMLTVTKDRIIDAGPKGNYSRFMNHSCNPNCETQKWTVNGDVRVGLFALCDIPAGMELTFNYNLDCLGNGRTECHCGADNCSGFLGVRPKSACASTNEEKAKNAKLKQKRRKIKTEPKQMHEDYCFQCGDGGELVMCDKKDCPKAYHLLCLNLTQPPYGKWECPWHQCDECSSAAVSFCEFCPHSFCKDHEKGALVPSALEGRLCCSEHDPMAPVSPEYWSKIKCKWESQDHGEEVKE
Outline: as §1

BRD3(2) = BRD3(2) (Homo sapiens, UniProt Q15059); assay: BROMOscan ligand-binding assay
Text: (§2) BROMOscan is a binding assay based on the well-known KINOMEscan technology. This assay measures the binding of a DNA-tagged bromodomain to an immobilized BRD ligand. If an inhibitor is present, it will compete with the bromodomain binding to the immobilized ligand, resulting in reduction of a quantitative PCR (qPCR) signal in a dose-dependent manner.

BRD2(1,2) = BRD2(1,2) (Homo sapiens, UniProt P25440); assay: BROMOscan ligand-binding assay
Text: as §2

[1] = KD, BROMOscan Gene Symbol BRD3(2)

BRPF1, sequence (P55201 1085-1168 limits assumed, species assumed): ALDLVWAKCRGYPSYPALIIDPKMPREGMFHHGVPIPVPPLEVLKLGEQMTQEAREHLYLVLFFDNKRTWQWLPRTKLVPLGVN
FXR1, sequence (P51114 2-132 limits assumed, species assumed): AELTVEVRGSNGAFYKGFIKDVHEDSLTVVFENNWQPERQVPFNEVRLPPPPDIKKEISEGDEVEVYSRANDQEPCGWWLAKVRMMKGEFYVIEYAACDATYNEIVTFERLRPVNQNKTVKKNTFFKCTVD
T2 sequence (Q96L73 whole entry): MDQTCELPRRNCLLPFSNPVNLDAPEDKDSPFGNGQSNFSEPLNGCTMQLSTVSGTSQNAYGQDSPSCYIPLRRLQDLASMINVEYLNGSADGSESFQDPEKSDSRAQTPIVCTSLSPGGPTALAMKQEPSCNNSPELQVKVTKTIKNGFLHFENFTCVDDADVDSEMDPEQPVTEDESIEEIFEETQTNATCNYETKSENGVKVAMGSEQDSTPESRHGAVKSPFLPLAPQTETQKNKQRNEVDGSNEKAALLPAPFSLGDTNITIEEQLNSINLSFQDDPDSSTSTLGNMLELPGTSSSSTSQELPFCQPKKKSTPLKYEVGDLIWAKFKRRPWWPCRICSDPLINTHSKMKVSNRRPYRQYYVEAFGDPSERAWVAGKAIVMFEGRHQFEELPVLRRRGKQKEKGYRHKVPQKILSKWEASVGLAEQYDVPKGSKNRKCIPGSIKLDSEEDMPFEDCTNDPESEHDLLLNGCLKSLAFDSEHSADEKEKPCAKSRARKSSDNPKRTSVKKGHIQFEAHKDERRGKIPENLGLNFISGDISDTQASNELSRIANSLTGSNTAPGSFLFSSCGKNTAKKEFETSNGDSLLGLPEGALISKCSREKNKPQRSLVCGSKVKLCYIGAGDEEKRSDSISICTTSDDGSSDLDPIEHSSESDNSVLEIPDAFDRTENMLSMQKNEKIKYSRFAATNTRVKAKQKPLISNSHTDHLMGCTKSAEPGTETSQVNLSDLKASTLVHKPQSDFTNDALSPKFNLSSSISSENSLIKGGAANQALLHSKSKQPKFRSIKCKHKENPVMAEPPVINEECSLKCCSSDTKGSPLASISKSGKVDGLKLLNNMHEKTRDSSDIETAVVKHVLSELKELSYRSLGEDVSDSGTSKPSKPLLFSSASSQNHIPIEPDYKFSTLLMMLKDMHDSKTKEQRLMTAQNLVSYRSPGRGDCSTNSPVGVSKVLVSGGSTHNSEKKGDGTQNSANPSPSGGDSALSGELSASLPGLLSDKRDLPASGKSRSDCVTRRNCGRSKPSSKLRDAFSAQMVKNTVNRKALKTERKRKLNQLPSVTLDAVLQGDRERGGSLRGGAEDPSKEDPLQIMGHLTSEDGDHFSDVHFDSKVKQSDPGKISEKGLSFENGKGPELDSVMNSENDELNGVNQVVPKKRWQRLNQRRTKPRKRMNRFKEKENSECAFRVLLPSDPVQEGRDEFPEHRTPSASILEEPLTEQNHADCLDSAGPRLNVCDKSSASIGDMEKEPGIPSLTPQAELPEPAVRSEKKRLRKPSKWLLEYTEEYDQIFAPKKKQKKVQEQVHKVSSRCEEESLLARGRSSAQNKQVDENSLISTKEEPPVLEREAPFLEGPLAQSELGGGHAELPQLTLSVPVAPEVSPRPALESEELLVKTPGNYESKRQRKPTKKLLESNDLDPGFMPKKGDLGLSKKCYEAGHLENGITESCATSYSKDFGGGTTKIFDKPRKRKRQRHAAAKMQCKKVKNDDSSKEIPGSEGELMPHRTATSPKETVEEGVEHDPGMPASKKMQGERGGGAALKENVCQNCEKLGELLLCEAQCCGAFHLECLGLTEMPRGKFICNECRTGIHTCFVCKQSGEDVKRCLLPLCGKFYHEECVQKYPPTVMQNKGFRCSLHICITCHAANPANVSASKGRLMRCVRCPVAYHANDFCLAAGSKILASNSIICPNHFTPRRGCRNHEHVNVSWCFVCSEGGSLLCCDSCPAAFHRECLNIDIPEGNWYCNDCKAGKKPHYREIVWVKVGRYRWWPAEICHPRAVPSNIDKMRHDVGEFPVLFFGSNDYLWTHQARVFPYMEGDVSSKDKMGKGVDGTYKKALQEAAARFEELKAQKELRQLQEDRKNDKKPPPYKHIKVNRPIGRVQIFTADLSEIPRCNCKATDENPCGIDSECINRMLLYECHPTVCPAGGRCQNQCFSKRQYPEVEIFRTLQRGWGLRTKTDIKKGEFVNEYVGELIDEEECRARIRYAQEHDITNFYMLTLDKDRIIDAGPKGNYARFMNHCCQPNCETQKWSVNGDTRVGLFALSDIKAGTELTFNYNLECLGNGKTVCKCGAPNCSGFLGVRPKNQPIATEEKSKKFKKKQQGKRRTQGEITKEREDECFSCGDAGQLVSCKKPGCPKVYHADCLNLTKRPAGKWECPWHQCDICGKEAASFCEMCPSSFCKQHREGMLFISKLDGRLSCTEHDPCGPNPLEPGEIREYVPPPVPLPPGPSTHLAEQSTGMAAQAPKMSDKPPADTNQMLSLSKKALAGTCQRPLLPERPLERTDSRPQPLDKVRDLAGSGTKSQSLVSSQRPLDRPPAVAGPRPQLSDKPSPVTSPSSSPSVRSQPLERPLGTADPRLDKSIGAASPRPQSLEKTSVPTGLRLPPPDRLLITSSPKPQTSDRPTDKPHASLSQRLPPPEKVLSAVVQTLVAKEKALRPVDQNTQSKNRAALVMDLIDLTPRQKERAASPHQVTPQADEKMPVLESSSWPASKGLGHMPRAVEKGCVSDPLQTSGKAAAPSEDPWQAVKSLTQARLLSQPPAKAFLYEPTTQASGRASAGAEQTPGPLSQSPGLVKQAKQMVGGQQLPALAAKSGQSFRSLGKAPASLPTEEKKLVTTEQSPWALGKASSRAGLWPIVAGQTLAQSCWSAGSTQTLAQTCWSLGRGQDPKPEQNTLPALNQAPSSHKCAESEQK
BRD3(2), sequence (Q15059 306-415 limits assumed): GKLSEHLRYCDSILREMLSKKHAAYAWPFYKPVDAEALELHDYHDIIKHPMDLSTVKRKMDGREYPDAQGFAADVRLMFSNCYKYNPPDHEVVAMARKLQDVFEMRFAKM
BRD2(1,2), sequence (P25440 71-455 limits assumed): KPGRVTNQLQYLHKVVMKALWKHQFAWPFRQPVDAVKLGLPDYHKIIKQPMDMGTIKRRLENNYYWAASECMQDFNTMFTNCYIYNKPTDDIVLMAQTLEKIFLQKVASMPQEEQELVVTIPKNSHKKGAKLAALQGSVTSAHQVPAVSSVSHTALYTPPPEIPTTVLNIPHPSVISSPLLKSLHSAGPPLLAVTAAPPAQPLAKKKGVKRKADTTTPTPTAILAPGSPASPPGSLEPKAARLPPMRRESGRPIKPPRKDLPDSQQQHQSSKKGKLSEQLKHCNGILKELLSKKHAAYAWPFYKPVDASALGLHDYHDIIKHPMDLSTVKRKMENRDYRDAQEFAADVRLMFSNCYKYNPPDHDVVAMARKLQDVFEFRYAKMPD

## Cc1cc2c(cc1N1C(=O)c3cccc4c(CCCO)ccc(c34)C1=O)n(C)c(=O)n2C [BAY-299]
FXR1
  Tm (C) 10µM, temperature shift: 0.8 Kelvin
BRPF1
  Tm (C) 10µM, temperature shift: -2.5 Kelvin

## Cc1c(NC(=O)c2cc(C(N)=O)nc3cc(F)ccc23)c(C(F)(F)F)nn1Cc1ccc(C(C)(C)C)cc1 [BAY-588]
PRMT7
  inhibition at 10 µM: 13%
NSD1
  inhibition at 10 µM: 11%
NSD3
  inhibition at 10 µM: -2%
FXR1
  Tm (C) 10µM, temperature shift: -1.2 Kelvin
BRPF1
  Tm (C) 10µM, temperature shift: -0.2 Kelvin

## COc1cc(Cl)c(C(=O)N[C@@H](CN[C@H]2CC[C@@H](N)CC2)Cc2ccc(C#N)cc2)cc1-c1ccc(CN[C@H](C)c2ccc(C)cc2)o1 [BAY-850]
PRMT7
  inhibition at 10 µM: 3%
NSD1
  inhibition at 10 µM: 2%
NSD3
  inhibition at 10 µM: 14%
FXR1
  Tm (C) 10µM, temperature shift: -1.7 Kelvin
BRPF1
  Tm (C) 10µM, temperature shift: -2.2 Kelvin

## Cc1c(NC(=O)c2cc(C(N)=O)nc3cc(F)ccc23)c(C(F)(F)F)nn1Cc1ccc(C#N)cc1 [BAY-876]
PRMT7
  inhibition at 10 µM: 12%
NSD1
  inhibition at 10 µM: 2%
NSD3
  inhibition at 10 µM: 3%
FXR1
  Tm (C) 10µM, temperature shift: 0.8 Kelvin
BRPF1
  Tm (C) 10µM, temperature shift: -0.3 Kelvin

## Cc1noc(C)c1-c1ccc2c(c1)nc(CCc1ccccc1)n2CCN1CCOCC1 [CBP30-298]
BRD3(2); BROMOscan Gene Symbol BRD3(2)
  Kd: 1600 nM

## CCCOc1ccn2c(C(C)=O)cc(-c3ccccc3S(C)(=O)=O)c2c1 [GSK2801]
BRD3(2); [1]
  Kd: 13000 nM
BRD2(1,2)
  Kd: 19 µM

## CN1C[C@H](Nc2cnn(C)c(=O)c2Br)C[C@H](c2ccccc2)C1 [GSK4027]
PRMT7
  inhibition at 10 µM: 15%
NSD1
  inhibition at 10 µM: 4%
NSD3
  inhibition at 10 µM: 10%
FXR1
  Tm (C) 10µM, temperature shift: 0.3 Kelvin
BRPF1
  Tm (C) 10µM, temperature shift: -0.8 Kelvin

## COc1ccccc1C(=O)Nc1cc2c(cc1N1CCNC[C@H]1C)n(C)c(=O)n2C [GSK6853]
PRMT7; 10µM
  MTases Inhibition (%): 11%
NSD1; 10µM
  MTases Inhibition (%): 1%
NSD3; 10µM
  MTases Inhibition (%): 7%

## CO[C@H]1CNC[C@@H](OCC2CCC(F)(F)CC2)[C@@H]1Nc1ncc(-c2cncc(C)c2)c2cc(C)c(=O)[nH]c12 [GSK8814]
PRMT7
  inhibition at 10 µM: 11%
NSD1
  inhibition at 10 µM: 19%
NSD3
  inhibition at 10 µM: 13%
FXR1
  Tm (C) 10µM, temperature shift: 0.4 Kelvin
BRPF1
  Tm (C) 10µM, temperature shift: -0.2 Kelvin

## CCC(=O)N1CCOc2c(cc(-c3ccc(OC)c(OC)c3)cc2OCC2CCCN(C)C2)C1 (centres unmarked) [I-CBP112]
FXR1
  Tm (C) 10µM, temperature shift: 0.9 Kelvin
BRD3(2); [1]
  Kd: 20000 nM
BRD2(1,2)
  Kd: 6.9 µM
BRPF1
  Tm (C) 10µM, temperature shift: -0.2 Kelvin

## Cc1nnc2c3ccccc3c(N[C@@H](C)[C@H](c3ccccc3)N(C)C)nn12 [L-Moses]
PRMT7
  inhibition at 10 µM: 8%
NSD1
  inhibition at 10 µM: -6%
NSD3
  inhibition at 10 µM: 5%
FXR1
  Tm (C) 10µM, temperature shift: 0.3 Kelvin
BRPF1
  Tm (C) 10µM, temperature shift: -2.7 Kelvin

## Cc1cc(=O)n(C)c2cc(N3C(=O)CC[C@H](NS(=O)(=O)CC(C)C)[C@H]3c3ccc(Cl)cc3)ccc12 [LP-99]
BRD3(2); BROMOscan, BRD3(2)
  Kd: > 50000 nM
BRD2(1,2); BROMOscan, BRD2(1,2)
  Kd: 35 µM

## COc1cc(C#N)ccc1S(=O)(=O)Nc1ccc2c(c1)cc(C)c(=O)n2C [NI 57]
BRD3(2); BRD3(2)
  Kd: > 50000 nM
BRD2(1,2); BRD2(1,2)
  Kd: 12 µM

## CCCS(=O)(=O)c1nc(NC2CC2)cc(-c2ccc3c(ccn3C3CC(C)(C)NC(C)(C)C3)c2)n1 [NVS-CECR2-1]
BRD3(2)
  Kd: > 30000 nM
BRD2(1,2)
  Kd: 16 µM

## COc1cc2c(cc1NS(=O)(=O)c1ccc(Br)cc1C)n(C)c(=O)n2C [OF-1]
BRD3(2); BRD3(2)
  Kd: 16000 nM
BRD2(1,2); BRD2(1,2)
  Kd: 5.6 µM

## O=C(C=CN1[C@H]2CC[C@@H]1c1ncnc(NC3CC3)c1C2)c1ccccc1O [PFI-3 D1]
BRD3(2); BROMOscan, BRD3(2)
  Kd: > 30000 nM
BRD2(1,2); BROMOscan, BRD2(1,2)
  Kd: > 30 µM

## O=C(C=CN1CC2CC1CN2c1ccccn1)c1ccccc1O (centres unmarked) [PFI-3]
BRD3(2); KD (BROMOscan), sheet prints no unit (nM)
  Kd: > 30000 nM
BRD3(2); KD, BRD3(2)
  Kd: > 100000 nM

## COc1ccc(CCc2nc3cc(-c4c(C)noc4C)ccc3n2C[C@H](C)N2CCOCC2)cc1Cl [SGC-CBP30]
BRD3(2); KD, BROMOscan, BRD3(2)
  Kd: 2300 nM
BRD2(1,2)
  Kd: 0.65 µM

## O=C(O)c1ccccc1O [Salicylic Acid]
BRD2(1,2)
  Kd: 7300 µM

## CN(C)CCCOc1ccc(-c2cc(NCCCn3cccn3)nc(S(C)(=O)=O)n2)cc1 [TP-238]
PRMT7
  inhibition at 10 µM: 9%
NSD1
  inhibition at 10 µM: 1%
NSD3
  inhibition at 10 µM: 15%
FXR1
  Tm (C) 10µM, temperature shift: 0.4 Kelvin
BRPF1
  Tm (C) 10µM, temperature shift: -0.3 Kelvin
